In US20100121048A1, “Cyclic Amine Compound and Use Thereof for the Prophylaxis or Treatment of Hypertension” (priority 2006, published 2010):

Target: T1, Human renin (Homo sapiens, UniProt P00797)
T1 construct: taking the active type (67-406); made in house; host or cells: FreeStyle 293-F cells (transient expression of pcDNA3.1(+)/hREN)
T1 sequence (P00797 67-406): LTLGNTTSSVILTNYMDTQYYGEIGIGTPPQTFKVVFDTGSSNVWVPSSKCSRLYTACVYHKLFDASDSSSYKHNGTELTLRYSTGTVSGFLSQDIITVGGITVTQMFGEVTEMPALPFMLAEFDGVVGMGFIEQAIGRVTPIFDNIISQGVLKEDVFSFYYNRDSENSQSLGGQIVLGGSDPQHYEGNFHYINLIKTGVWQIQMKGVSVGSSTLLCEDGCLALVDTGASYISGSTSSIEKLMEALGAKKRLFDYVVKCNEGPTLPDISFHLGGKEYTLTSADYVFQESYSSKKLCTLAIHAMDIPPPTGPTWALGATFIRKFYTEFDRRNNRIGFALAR
Experiment: Measurement of renin inhibition value (human renin, FITC substrate peptide, capillary electrophoresis)
Format: biochemical
Settings: active type renin (67-406), pH 6.0, 37° C., 30 min; for inhibition at 1 µM: test compound 1 μM, read-out: Human Renin Inhibitory Activity: inhibitory activity (%) at 1 μM; for inhibition at 10 µM: test compound 10 μM, read-out: Human Renin Inhibitory Activity: inhibitory activity (%) at 10 μM
Procedure: Human renin was obtained by expressing preprorenin (1-406) in an animal cell, treating the prorenin (24-406) contained in the culture supernatant with trypsin, and taking the active type (67-406).
A plasmid DNA to express human renin in HEK293 cells was prepared as follows. PCR was carried out using human renal cDNA (Clontech Laboratories, Inc., Marathon Ready cDNA) as the template and using two synthetic DNAs (5′-[…]-3′ AND 5′-[…]-3′), and the obtained fragments were cloned using a TOPO TA Cloning Kit (Invitrogen Corp.). The obtained fragments were subcloned into pcDNA3.1(+) that had been cleaved by HindIII and BamHI, thus to obtain a plasmid DNA for human preprorenin expression (PcDNA3.1(+)/hREN).
Expression of human preprorenin was conducted using FreeStyle 293 Expression System (Invitrogen Corp.). According to the manual accompanying the FreeStyle 293 Expression System, the plasmid DNA for human preprorenin expression (pcDNA3.1(+)/hREN) constructed in Experimental Example 1 was used to conduct transient expression by FreeStyle 293-F cells. After transfection of the plasmid DNA, the cells were subjected to shaking culture under the conditions of 37° C., 8% CO2 and 125 rpm for 3 days. A 600-ml aliquot of the culture solution was centrifuged at 2,000 rpm for 10 min to recover the culture supernatant containing prorenin (24-406). The culture supernatant was concentrated by ultrafiltration using a PM10 membrane (Millipore, Inc.) to a volume of about 50 ml, and then was dialyzed against 20 mM Tris-hydrochloric acid (pH 8.0). The dialyzate was fed to a 6-ml RESOURCE Q column (Amersham Biosciences, Inc.) equilibrated with 20 mM Tris-hydrochloric acid (pH 8.0) at a flow rate of 3 ml/min to adsorb the prorenin (24-406). After washing the column with the buffer solution used in the equilibration, elution was carried out by means of a linear concentration gradient of sodium chloride from 0 M to 0.4 M. The fraction containing prorenin (24-406) was collected and concentrated using Vivaspin 20 (molecular weight cut off 10,000; Vivascience, Inc.) to a volume of about 2 ml.
The concentrated liquid was subjected to gel filtration chromatography using HiLoad 16/60 Superdex 200 pg (Amersham Biosciences, Inc.) equilibrated with 20 mM Tris-hydrochloric acid (pH 8.0) containing 0.15 M sodium chloride, at a flow rate of 1.4 ml/min, thus to obtain 3.6 mg of purified prorenin (24-406).
To 3.6 mg of prorenin (24-406) was dissolved in 5.2 ml of 0.1 M Tris-hydrochloric acid (pH 8.0), 12 μg of trypsin (Roche Diagnostics Corp.) was added, and the mixture was allowed to react at 28° C. for 55 min to carry out activation of renin. After the reaction, 0.4 ml of immobilized trypsin inhibitor (Pierce Biotechnology, Inc.) was added to remove the trypsin used in the activation by adsorption. The reaction liquid containing the active type renin was concentrated using Vivaspin 20 (molcular weight cut off 10,000; Vivascience, Inc.), and was diluted with 20 mM Tris-hydrochloric acid (pH 8.0). The diluted liquid was fed to a TSKgel DEAE-5 PW column (7.5 mm I.D.×75 mm, Tosoh Corp.) equilibrated with 20 mM Tris-hydrochloric acid (pH 8.0) at a flow rate of 1 ml/min to adsorb the active type renin (67-406). The column was washed with the buffer solution used for the equilibration, and then elution was carried out by means of a sodium chloride linear concentration gradient from 0 M to 0.3 M, thus to obtain 1.5 mg of a purified product of active type renin (67-406).
5 μl each of the test compound (containing 50% DMSO) was added to each well of a 384-well black plate (Nalge Nunc International Co., Ltd.). Renin was diluted with a buffer solution for reaction (20 mM citric acid-sodium citrate (pH 6.0)) to a concentration of 0.5 μg/ml, and 35 μl each of the dilution was added to each well. […]

CCCCNc1ccccc1-n1ccc(C(=O)N2CCNCC2Cc2ccccc2)c1-c1ccccc1 (racemic) [Example 99, 2-(3-[(2-benzylpiperazin-1-yl)carbonyl]-2-phenyl-1H-pyrrol-1-yl}-N-butylaniline]
inhibition at 1 µM: 105%
inhibition at 10 µM: 107%

COc1cccc(-n2c(C)cc(C(=O)N3CCNC[C@H]3Cc3ccccc3)c2-c2ccccc2)c1OC [Example 43, (2R)-2-benzyl-1-{[1-(2,3-dimethoxyphenyl)-5-methyl-2-phenyl-1H-pyrrol-3-yl]carbonyl}piperazine]
inhibition at 1 µM: 104%
inhibition at 10 µM: 106%

O=C(c1ncn(-c2cccc(N3CCOCC3)c2)c1-c1ccccc1)N1CCNC[C@H]1Cc1ccccc1 [Example 56, 4-(3-(4-{[(2R)-2-benzylpiperazin-1-yl]carbonyl}-5-phenyl-1H-imidazol-1-yl)phenyl]morpholine]
inhibition at 1 µM: 104%
inhibition at 10 µM: 103%

COc1cccc(-n2cnc(C(=O)N3CCNC[C@H]3Cc3ccccc3)c2-c2ccccc2)c1OC [Example 57, (2R)-2-benzyl-1-([1-(2,3-dimethoxyphenyl)-5-phenyl-1H-imidazol-4-yl]carbonyl}piperazine]
inhibition at 1 µM: 108%
inhibition at 10 µM: 108%

O=C(c1ncn(C2Cc3ccccc3C2)c1-c1ccccc1)N1CCNC[C@H]1Cc1ccccc1 [Example 73, (2R)-2-benzyl-1-{[1-(2,3-dihydro-1H-inden-2-yl)-5-phenyl-1H-imidazol-4-yl]carbonyl}piperazine]
inhibition at 1 µM: 97%
inhibition at 10 µM: 101%

Cc1cc(C(=O)N2CCNC[C@H]2Cc2ccccc2)c(-c2ccccc2)n1-c1cccc(N2CCOCC2)c1 [Example 105, 4-(3-(3-{[(2R)-2-benzylpiperazin-1-yl]carbonyl}-5-methyl-2-phenyl-1H-pyrrol-1-yl)phenyl]morpholine]
inhibition at 1 µM: 102%
inhibition at 10 µM: 104%

O=C(O)c1ccc(C[C@@H]2CNCCN2C(=O)c2ncn(-c3cccc(N4CCOCC4)c3)c2-c2ccccc2)cc1 [Example 161, 4-[((2R)-1-{[1-(3-morpholinophenyl)-5-phenyl-1H-imidazol-4-yl]carbonyl}piperazin-2-yl)methyl]benzoic acid]
inhibition at 1 µM: 100%
inhibition at 10 µM: 101%

CS(=O)(=O)c1ccc(COC[C@@H]2CNCCN2C(=O)c2ncn(-c3cccc(N4CCOCC4)c3)c2-c2ccccc2)cc1 [Example 472, 4-[3-(4-{[(2S)-2-({[4-(methylsulfonyl)benzyl]oxy}methyl)piperazin-1-yl]carbonyl}-5-phenyl-1H-imidazol-1-yl)phenyl]morpholine]
inhibition at 1 µM: 100%
inhibition at 10 µM: 102%

COc1nc(C(=O)N2CCNC[C@H]2Cc2ccccc2)c(-c2ccccc2)n1-c1ccccc1 [Example 475, (2R)-2-benzyl-1-[(2-methoxy-1,5-diphenyl-1H-imidazol-4-yl)carbonyl]piperazine]
inhibition at 1 µM: 97%
inhibition at 10 µM: 99%

O=C(c1ncn(C2CCCN(S(=O)(=O)c3ccccc3)C2)c1-c1ccccc1)N1CCNC[C@H]1Cc1ccccc1 (stereo partly drawn) [Example 476, (2R)-2-benzyl-1-({5-phenyl-1-[1-(phenylsulfonyl)piperidin-3-yl]-1H-imidazol-4-yl}carbonyl)piperazine]
inhibition at 1 µM: 99%
inhibition at 10 µM: 99%

COc1ccc(S(=O)(=O)N2CCCC(n3cnc(C(=O)N4CCNC[C@H]4Cc4ccccc4)c3-c3ccccc3)C2)cn1 (stereo partly drawn) [Example 477, (2R)-2-benzyl-1-[(1-{1-[(6-methoxypyridin-3-yl)sulfonyl]piperidin-3-yl}-5-phenyl-1H-imidazol-4-yl)carbonyl]piperazine]
inhibition at 1 µM: 102%
inhibition at 10 µM: 104%

O=C(C[C@H](CCc1ccccc1)n1cnc(C(=O)N2CCNC[C@H]2Cc2ccccc2)c1-c1ccccc1)N1CCOCC1 [Example 478, 4-[(3S)-3-(4-{[(2R)-2-benzylpiperazin-1-yl]carbonyl}-5-phenyl-1H-imidazol-1-yl)-5-phenylpentanoyl]morpholine]
inhibition at 1 µM: 99%
inhibition at 10 µM: 101%
